Holding throughout (assay type): cell-based
Holding throughout (conditions): LB agar, 37° C., light, 16 to 20 hours

The subject of test [1] is CyPPO16 wild type (SEQ ID NO: 1) in PPO-deficient E. coli BT3(ΔPPO). The protocol: (§1) The mutated CyPPO gene obtained from the Example 2 was transformed to BT3 (ΔPPO) strain which is deficient of PPO activity and cultured in LB media with PPO-inhibiting herbicide, thereby examining whether growth of transformed BT3 was not inhibited.
(§2) BT3 competent cells were transformed with the pET303-CyPPO16 and pET303-CyPPO17 plasmids and those with a mutation(s) constructed in Example 2 respectively, and were cultured in LB agar media containing carbenicillin (Gold Biotechnology, Co., Ltd.).
(§3) Single colony of E. coli transformed with each CyPPO gene was cultured in 3 ml of LB broth containing carbenicillin overnight, and then was subcultured until absorbance (0D600) reached 0.5 to 1. Then, it was diluted with LB broth to OD600=0.5. Again, the diluted solution was serially diluted 4 times by a factor of one tenth.
(§4) The LB agar media (LB 25 g/l, Bacto agar 15 g/l) containing carbenicillin (100 μg/ml) and 0 to 4,000 μM of various herbicides dissolved in DMSO was prepared. Next, 10 μl of each diluted solution was dropped on the plate and cultured at 37° C. under light (Tables 7 and 9, FIGS. 2 to 6, and 18 to 22) or dark (Tables 8 and 10, FIGS. 7 to 17, and 23 to 33) for 16 to 20 hours. Then, extent of tolerance was evaluated.
(§5) The extent of herbicide tolerance of the mutated genes was evaluated by comparing that of mutated genes with that of wild type. The relative tolerance was represented with “+” as a factor of 10 times. Evaluation result was listed in Tables 7 to10 and FIGS. 2 to 33:
(§6) In Tables 7 to 10, tolerance level was presented as of tolerance of wild type and of variants equivalent to that of wild type, and was done as ‘+’ per each 10 fold resistance until ‘+++++’ as maximal resistance. (Tolerance level was evaluated by relative growth level of variants to that of wild type in the media containing highest concentration of herbicide; ‘+’=1-9 fold higher tolerance, ‘++’=10-99 fold higher tolerance, ‘+++’=100-999 fold higher tolerance, ‘++++’=1,000-9,999 fold higher tolerance, ‘+++++’=more than 10,000 fold higher tolerance)

Test [2] concerns CyPPO17 wild type (SEQ ID NO: 3) in PPO-deficient E. coli BT3(ΔPPO). The protocol:
as §1, §2, §3, §4, §5, §6

The test system of test [3] is CyPPO17 (SEQ ID NO: 3) variant A166C in PPO-deficient E. coli BT3(ΔPPO). The protocol: as §1, §2, §3, §4
(§7) The extent of herbicide tolerance of the mutated genes was evaluated by comparing that of mutated genes with that of wild type. The relative tolerance was represented with “+” as a factor of 10 times.
(§8) In Tables 7 to 10, tolerance level was presented as of tolerance of wild type and of variants equivalent to that of wild type, and was done as ‘+’ per each 10 fold resistance until ‘+++++’ as maximal resistance.

In test [4] the test system is CyPPO17 (SEQ ID NO: 3) variant F359I in PPO-deficient E. coli BT3(ΔPPO). The protocol:
as §1, §2, §3, §4, §7, §8

Test [5] has as its system CyPPO16 (SEQ ID NO: 1) variant V305M in PPO-deficient E. coli BT3(ΔPPO). As to the method:
as §1, §2, §3, §4, §7, §8

Test [6] deals with CyPPO17 (SEQ ID NO: 3) variant V304M in PPO-deficient E. coli BT3(ΔPPO). The protocol: as §1, §2, §3, §4, §7, §8
For test [7], the system named is CyPPO16 (SEQ ID NO: 1) variant F360C in PPO-deficient E. coli BT3(ΔPPO). The protocol: as §1, §2, §3, §4, §7, §8
Test [8] concerns CyPPO17 (SEQ ID NO: 3) variant F359M in PPO-deficient E. coli BT3(ΔPPO). As to the method: as §1, §2, §3, §4, §7, §8
Test [9] deals with CyPPO16 (SEQ ID NO: 1) variant A162C in PPO-deficient E. coli BT3(ΔPPO). The protocol: as §1, §2, §3, §4, §7, §8
Test [10] deals with CyPPO16 (SEQ ID NO: 1) variant F360L in PPO-deficient E. coli BT3(ΔPPO). As to the method: as §1, §2, §3, §4, §7, §8
Test [11] concerns CyPPO16 (SEQ ID NO: 1) variant F360I in PPO-deficient E. coli BT3(ΔPPO). The protocol: as §1, §2, §3, §4, §7, §8
Test [12] concerns CyPPO16 (SEQ ID NO: 1) variant F360V in PPO-deficient E. coli BT3(ΔPPO). As to the method: as §1, §2, §3, §4, §7, §8
Test [13] relates to CyPPO17 (SEQ ID NO: 3) variant A166L in PPO-deficient E. coli BT3(ΔPPO). As to the method: as §1, §2, §3, §4, §7, §8
Test [14] relates to CyPPO16 (SEQ ID NO: 1) variant A162L in PPO-deficient E. coli BT3(ΔPPO). The protocol:
as §1, §2, §3, §4, §7, §8

In test [15] the test system is CyPPO16 (SEQ ID NO: 1) variant F360M in PPO-deficient E. coli BT3(ΔPPO). As to the method:
as §1, §2, §3, §4, §7, §8

Test [16] has as its system CyPPO17 (SEQ ID NO: 3) variant F359C in PPO-deficient E. coli BT3(ΔPPO). As to the method:
as §1, §2, §3, §4, §7, §8

In test [17] the test system is CyPPO17 (SEQ ID NO: 3) variant F359L in PPO-deficient E. coli BT3(ΔPPO). As to the method: as §1, §2, §3, §4, §7, §8
Test [18] has as its system CyPPO17 (SEQ ID NO: 3) variant V304L in PPO-deficient E. coli BT3(ΔPPO). The protocol:
as §1, §2, §3, §4, §7, §8

Consider 1 compound from patent US11219221B2 (FarmHannong Co., Ltd., priority 2017, dated 2022).

Each structure is given as a SMILES string.

On to `CC(C)N(C)S(=O)(=O)NC(=O)c1cc(-n2c(=O)cc(C(F)(F)F)n(C)c2=O)c(F)cc1Cl` [saflufenacil], for which the “Herbicide tolerance (relative to wild type)” value is “−” in [1]; “−” in [2]; “+++ (100-999 fold higher tolerance)” in test [3]; “+++ (100-999 fold higher tolerance)” in [4]; “+++ (100-999 fold higher tolerance)” in [5]; “+++ (100-999 fold higher tolerance)” in test [6]. Further, the “Herbicide tolerance (relative to wild type)” value in test [7], in test [8], in test [9], in [10], in [11] and in [12] was “+++ (100-999 fold higher tolerance)” throughout. In addition, the “Herbicide tolerance (relative to wild type)” value is “+++ (100-999 fold higher tolerance)” in test [13]; “+++ (100-999 fold higher tolerance)” in [14]; “+++ (100-999 fold higher tolerance)” in test [15]; “+++ (100-999 fold higher tolerance)” in test [16]; “+++ (100-999 fold higher tolerance)” in [17]; “+ (1-9 fold higher tolerance)” in test [18].
